{
  "source": "patent US20080176810A1",
  "about": "“Use of 3, 4', 5-Trihydroxy-Stilbene-3-Beta-D-glucoside in Prepartion of Medicines For Treating and/or Preventing Ischemic Heart Disease” (SHENZHEN NEPTUNUS PHARMACEUTICAL CO., LTD., priority 2004, published 2008)",
  "key": {"[1]": {"tested_on": "acute myocardial infarction", "assay": "Acute myocardial infarction in anesthetized dogs, oral (intragastric) administration", "type": "in vivo", "conditions": "for weight of infarct myocardium: N-BT staining; for Weight of IM/Weight of LH: in % (unit assumed); for LDH: serum, 180 min; for ΔST: surface ECG, by row: r6 before, r7-r12 5,15,30,60,90,120 min after administration", "method": "Drugs were administered intragastrically in equal volume at unequal concentration. […] After weighing, animals were anesthetized with 3% pentobarbital sodium iv at the dose of 30 mg/kg. Tracheal intubation was performed and anesthesia respirator (SC-M5, manufactured by Shanghai Medical Instrument Factory) was connected for mechanical ventilation (18 20 per min with tidal volume of 350 550 ml) after thoracotomy. Needle electrodes were punctured into four limbs and under chest skin for monitoring standard limb lead and V3 and ECG. Thoracotomy was performed at the third intercostal space of left sternal border and the fourth rib was removed for full exposure of heart. The pericardium was cut open to make a pericardium hammock. The coronary artery was dissociated from between the second and third branches of left anterior descending coronary artery, underneath which pass through silk threads for two-step ligation. On surface of heart were placed 30-point epicardial leads, to which four limbs were connected through needle-electrodes, which were in turn connected to Powerlab/8s (AD Instruments) with a multichannel switcher to record epicardial electrogram. Animal models of acute myocardial ischemia were prepared with the method of two-step ligation. […] NBT). While other part of myocardium was dyed to blue-black, the Infarct myocardium would not be colorated, which was then cut off and weighted. The results of experiment were shown in x±s and statistics were checked with t-test of non-matched pair. When p<0.05, it was judged that the differences were statistically significant."}, "[2]": {"tested_on": "chronic myocardial ischemia", "assay": "Chronic myocardial ischemia in rats, intragastric administration", "type": "in vivo, SD rats", "conditions": "TSG 20 mg/kg intragastric, 6 weeks", "method": "(1) Operation and Coronary artery ligation of Animal: 60 male SD rats, divided into two groups: 15 in sham operation group and 45 in operation group, were immobilized on their backs by anesthesia of urethane ip at the dose of 100 mg/kg. Electrocardiograph (ECG-6851C, made by Shanghai Photoelectrical & Electronic Medical Apparatus Co., Ltd.) was used to record II lead electrocardiogram. Tracheal intubation was performed and connected into an artificial respirator and thoracotomy was performed at the fourth intercostal space of left sternal border after the skin sterilization. With exposure of the heart, the ligation was conducted at 3-4 mm of the root of left anterior descending coronary artery. ECG was monitored during the whole process and the graph showing significant elevation and depression of ST segment as well as the elevated T-wave amplitude was viewed as the indexes for the success of coronary artery ligation. After the ligation, thorax was closed and the air was drawn out. Regular feeding was continued after the operation, and the intramuscular injection of Penicillin was performed to prevent infection in 1 week after the operation. Thoracotomy was performed in sham operation group without coronary artery ligation.\n(2) Groups and administration: 5 weeks later, there were 11 rats survived in sham operation group, and 24 rats in operation group. […] Starting from the sixth week, drugs were administered 6 days per week, and continued for 6 weeks, but withdrawn on Sundays. The volume of the drug administered was 5 ml/kg.\n(1) Evaluation of therapeutic effect: Therapeutic effect was evaluated at the 12th week after the operation. 30 min after the final administration, rats were immobilized on their backs and tracheal intubation was performed. Arteria Femoralis was separated or insertion of a catheter to record artery blood pressure. A cardiac catheter was inversely guided into left ventricular from right common carotid artery. Both catheters were connected with pressure sensor, and then the pressure signals were input into an electrophysiolograph Powerlab system 8s (ML785/8S, AD Instruments, made in Australia) after being amplified with carriers. Needle electrodes were subcutaneously inserted into four limbs to monitor the standard two lead ECG. A computer (chart4.12 software, ML785/8S, AD Instruments, made in Australia) was used to monitor and store data. Thirty min after the operation, heart rate (HR), blood pressure (BPm), left ventricular systolic pressure (LVSP), left ventricular diastolic pressure (LVDP), the maximal rate of left intraventricular pressure changes (+dp/dtmax), left ventricular end-diastolic pressure (LVEDP), ECG were observed. One hour later, animals were executed, and their left ventriculars were taken out. The left hearts were cut into slices of 5 mm in thickness, which were cleaned with normal saline and put into 0.025% nitroblue tetrazolium (N-BT, made by Swiss Fluka Chemistry Company) at 37° C. for staining. Normal myocardium was dyed into dark blue, and the myocardium in infarction area was not dyed, remaining still light-yellow. The infarction area was isolated from normal myocardium under an anatomic microscopy and the both weighed, separatively. The percentage (%) of the weight of infarct area to the weight of the whole was regarded as the index for measurement of the area of myocardial infarction.\nTest results was expressed in x±s. […]"}, "[3]": {"tested_on": "Kunming mice", "assay": "Acute toxicity test of mice, intravenous injection", "conditions": "single dose tail intravenous injection", "protocol": "Drugs were medicated via intravenous injection at different concentration in same volume, which was 20 ml/kg.\n40 healthy Kunming mice were selected and randomly divided into 4 groups. Drugs were injected via tail vein at one time and the doses were 300 mg/kg, 425 mg/kg, 600 mg/kg and 850 mg/kg, respectively. Mice were constantly observed for 4 hours after the injection. After that, observations were carried out once in the morning and once in the afternoon for 7 days continuously. Signs of intoxation and time of death were recorded."}},
  "data": [
    {"substance": "3,4′,5-trihydroxy-stilbene-3-β-D-glucoside [TSG]", "values": [
      {"measurement": "weight of infarct myocardium", "setting": "[1]; TSG 5 mg/kg oral", "value": "5.98 ± 1.71", "unit": "g"},
      {"measurement": "Weight of IM/Weight of LH", "setting": "[1]; TSG 5 mg/kg oral", "value": "10.8 ± 2.81"},
      {"measurement": "LDH", "setting": "[1]; TSG 5 mg/kg oral", "value": "159 ± 80.4", "unit": "IU/L"},
      {"measurement": "ΔST", "setting": "[1]; TSG 5 mg/kg oral, 5 min after administration", "value": "0.70 ± 0.50", "unit": "mV"},
      {"measurement": "ΔST", "setting": "[1]; TSG 5 mg/kg oral, 15 min after administration", "value": "0.71 ± 0.48", "unit": "mV"},
      {"measurement": "ΔST", "setting": "[1]; TSG 5 mg/kg oral, 30 min after administration", "value": "0.73 ± 0.51", "unit": "mV"},
      {"measurement": "ΔST", "setting": "[1]; TSG 5 mg/kg oral, 60 min", "value": "0.88 ± 0.54", "unit": "mV"},
      {"measurement": "ΔST", "setting": "[1]; TSG 5 mg/kg oral, 90 min after administration", "value": "0.82 ± 0.49", "unit": "mV"},
      {"measurement": "ΔST", "setting": "[1]; TSG 5 mg/kg oral, 120 min after administration", "value": "0.86 ± 0.52", "unit": "mV"},
      {"measurement": "ΔST", "setting": "[1]; TSG 5 mg/kg oral, Before administration", "value": "0.66 ± 0.45", "unit": "mV"},
      {"measurement": "weight of infarct myocardium", "setting": "[1]; TSG 10 mg/kg oral", "value": "3.17 ± 0.66", "unit": "g"},
      {"measurement": "Weight of IM/Weight of LH", "setting": "[1]; TSG 10 mg/kg oral", "value": "6.61 ± 1.31"},
      {"measurement": "LDH", "setting": "[1]; TSG 10 mg/kg oral", "value": 140, "unit": "IU/L"},
      {"measurement": "ΔST", "setting": "[1]; TSG 10 mg/kg oral, 5 min after administration", "value": "0.68 ± 0.51", "unit": "mV"},
      {"measurement": "ΔST", "setting": "[1]; TSG 10 mg/kg oral, 15 min after administration", "value": "0.69 ± 0.52", "unit": "mV"},
      {"measurement": "ΔST", "setting": "[1]; TSG 10 mg/kg oral, 30 min after administration", "value": "0.69 ± 0.45", "unit": "mV"},
      {"measurement": "ΔST", "setting": "[1]; TSG 10 mg/kg oral, 60 min", "value": "0.70 ± 0.44", "unit": "mV"},
      {"measurement": "ΔST", "setting": "[1]; TSG 10 mg/kg oral, 90 min after administration", "value": "0.75 ± 0.46", "unit": "mV"},
      {"measurement": "ΔST", "setting": "[1]; TSG 10 mg/kg oral, 120 min after administration", "value": "0.81 ± 0.52", "unit": "mV"},
      {"measurement": "ΔST", "setting": "[1]; TSG 10 mg/kg oral, Before administration", "value": "0.55 ± 0.40", "unit": "mV"},
      {"measurement": "weight of infarct myocardium", "setting": "[1]; TSG 20 mg/kg oral", "value": "2.31 ± 0.70", "unit": "g"},
      {"measurement": "Weight of IM/Weight of LH", "setting": "[1]; TSG 20 mg/kg oral", "value": "4.03 ± 0.61"},
      {"measurement": "LDH", "setting": "[1]; TSG 20 mg/kg oral", "value": 120, "unit": "IU/L"},
      {"measurement": "+dp/dt max", "setting": "[2]", "value": "1389 ± 142^Δ Kpa/s"},
      {"measurement": "BP", "setting": "[2]", "value": "19.2 ± 1.8^Δ KPa"},
      {"measurement": "HR", "setting": "[2]", "value": "354 ± 45^Δ p/min"},
      {"measurement": "LVEDP", "setting": "[2]", "value": "0.82 ± 0.19^Δ KPa"},
      {"measurement": "LVSP", "setting": "[2]", "value": "19.8 ± 2.1^Δ KPa"},
      {"measurement": "signs of intoxication", "setting": "[3]", "value": "body shaking, occasionally restlessness, twitch and other responses appeared"},
      {"measurement": "time of death after the drug injection", "setting": "[3]", "value": "5 to 1440", "unit": "min"}
    ]}
  ]
}
